According to ChEMBL document CHEMBL4725230, “Syntheses and pharmacokinetic evaluations of four metabolites of 2-(4-(2-((1H-benzo[d]imidazol-2-yl)thio)ethyl)piperazin-1-yl)-N-(6-methyl-2,4-bis-(methylthio)pyridin-3-yl)acetamide hydrochloride [K-604], an acyl-CoA:cholesterol O-acyltransferase-1 inhibitor” (Bioorg Med Chem, 2020):

Experiment: Retention time of the compound in human liver microsomes after 5 mins in presence of NADPH by LC-MS/MS analysis
Format: ADME, Microsome

Retention_time [min]	SMILES
5.78	CSc1cc(C)nc(SC)c1NC(=O)CN1CCN(CC[S+]([O-])c2nc3ccccc3[nH]2)CC1 (configuration not stated)
2.73	CSc1cc(C)nc([S+](C)[O-])c1NC(=O)CN1CCN(CCSc2nc3ccccc3[nH]2)CC1 (configuration not stated)
